Source: patent US20130172294A1, “Treatment with VB-201” (Vascular Biogenics Ltd., priority 2010, published 2013)

Test: Effect of food and capsule coating on single-dose pharmacokinetics (Example 3)
Format: in vivo, human
Method: Determination of VB-201 concentrations in plasma was performed using an HPLC-MS/MS (high performance liquid chromatography with tandem mass spectrometric detection) assay. Calibration was for a range of from 5 to 500 ng/ml for low doses and from 50 to 5000 ng/ml for high doses. Pharmacokinetic parameters were estimated by using a non-compartmental method, except for the AUC (area under curve), which was determined using a (log-) trapezoidal rule as the area above the previous trough level. All calculations were made using PKWizard (developed by Russell Barbare and Dr. […] was validated against WinNonlin (Pharsight Corp.), which is an FDA-recognized validated program. Pharmacokinetic parameters were calculated by the program according to standard methods used in the art. Calculation of the pharmacokinetic characteristics was based on the actual blood sampling time (in hours), with predose times set to zero. Concentrations below the LLOQ (lower limit of quantification; 4.974 ng/ml) were assumed to be zero. The effects of food on the pharmacokinetics of enteric coated and non-coated VB-201 capsules were investigated in a double-blind, placebo-controlled study in healthy subjects. Cohorts of six subjects each received a single dose of 10 mg, 2×10 mg or 20 mg VB-201 in the morning. […] Subjects were randomly assigned to receive the drug when fed (i.e., following completion of a standardized high fat meal) or when fasting (i.e., fasting for at least 10 hours). […] Subjects then underwent an additional 8 day washout period, after which subjects underwent a second administration. Subjects who received the first administration when fasting, received the second administration when fed, and subjects who received the first administration when fed, received the second administration when fasting. Following the second administration, blood samples were taken at the same times post-dose as previously. Concentration-time curves were constructed for time periods of up to 144 hours. Pharmacokinetic parameters were calculated based on data for the first 24 hours and for the whole 144 hours. […] Nevertheless, parameters were also calculated from data covering the first 24 hours in order to compare parameters with previous studies. Statistical comparisons of doses, coated vs. non-coated capsules, feeding vs. fasting and coating-feeding interactions were performed using a mixed model ANOVA in an SAS 8.02 software package (SAS Institute, Cary, N.C.) using PROC MIXED

CCCCCCCCCCCCCCCCOCC(COP(=O)([O-])OCC[N+](C)(C)C)OCCCCC(=O)O (stereo not drawn) [VB-201, 1-hexadecyl-2-(4′-carboxybutyl)-glycerol-3-phosphocholine]
AUC (0-infinity, from 24) (1 × 10 mg coated fasting): 4801 ng·h/mL
AUC (0-infinity, from 144) (1 × 10 mg coated fasting): 8017 ng·h/mL
AUC(0-24) (1 × 10 mg coated fasting): 2602 ng·h/mL
AUC(0-144) (1 × 10 mg coated fasting): 7397 ng·h/mL
AUMC (0-24) (1 × 10 mg coated fasting): 33556 hours^2*ng/ml
AUMC (0-infinity) (1 × 10 mg coated fasting): 467760 hours^2*ng/ml
Cl/F (0-24) (1 × 10 mg coated fasting): 3.293 L/h
Cl/F (from 144) (1 × 10 mg coated fasting): 1.580 L/h
Cmax (1 × 10 mg coated fasting): 171.4 ng/mL
Ke (from 24) (1 × 10 mg coated fasting): 0.0438 h⁻¹
Ke (from 144) (1 × 10 mg coated fasting): 0.0201 h⁻¹
MTT (0-24) (1 × 10 mg coated fasting): 12.8 h
MTT (from 144) (1 × 10 mg coated fasting): 60.7 h
T1/2 (from 24) (1 × 10 mg coated fasting): 17.8 h
T1/2 (from 144) (1 × 10 mg coated fasting): 37.6 h
Tmax (1 × 10 mg coated fasting): 9.33 h
AUC (0-infinity, from 24) (1 × 10 mg coated fed): 5898 ng·h/mL
AUC (0-infinity, from 144) (1 × 10 mg coated fed): 9751 ng·h/mL
AUC(0-24) (1 × 10 mg coated fed): 2202 ng·h/mL
AUC(0-144) (1 × 10 mg coated fed): 8583 ng·h/mL
AUMC (0-24) (1 × 10 mg coated fed): 32798 hours^2*ng/ml
AUMC (0-infinity) (1 × 10 mg coated fed): 699311 hours^2*ng/ml
Cl/F (0-24) (1 × 10 mg coated fed): 1.883 L/h
Cl/F (from 144) (1 × 10 mg coated fed): 1.091 L/h
Cmax (1 × 10 mg coated fed): 186.4 ng/mL
Ke (from 24) (1 × 10 mg coated fed): 0.0352 h⁻¹
Ke (from 144) (1 × 10 mg coated fed): 0.0166 h⁻¹
MTT (0-24) (1 × 10 mg coated fed): 15.1 h
MTT (from 144) (1 × 10 mg coated fed): 70.7 h
T1/2 (from 24) (1 × 10 mg coated fed): 23.4 h
T1/2 (from 144) (1 × 10 mg coated fed): 45.0 h
Tmax (1 × 10 mg coated fed): 13.67 h
AUC (0-infinity, from 24) (1 × 10 mg non-coated fasting): 9375 ng·h/mL
AUC (0-infinity, from 144) (1 × 10 mg non-coated fasting): 15995 ng·h/mL
AUC(0-24) (1 × 10 mg non-coated fasting): 5759 ng·h/mL
AUC(0-144) (1 × 10 mg non-coated fasting): 14544 ng·h/mL
AUMC (0-24) (1 × 10 mg non-coated fasting): 67186 hours^2*ng/ml
AUMC (0-infinity) (1 × 10 mg non-coated fasting): 924243 hours^2*ng/ml
Cl/F (0-24) (1 × 10 mg non-coated fasting): 1.184 L/h
Cl/F (from 144) (1 × 10 mg non-coated fasting): 0.695 L/h
Cmax (1 × 10 mg non-coated fasting): 364.5 ng/mL
Ke (from 24) (1 × 10 mg non-coated fasting): 0.0575 h⁻¹
Ke (from 144) (1 × 10 mg non-coated fasting): 0.0190 h⁻¹
MTT (0-24) (1 × 10 mg non-coated fasting): 11.7 h
MTT (from 144) (1 × 10 mg non-coated fasting): 54.2 h
T1/2 (from 24) (1 × 10 mg non-coated fasting): 13.6 h
T1/2 (from 144) (1 × 10 mg non-coated fasting): 39.7 h
Tmax (1 × 10 mg non-coated fasting): 7.67 h
AUC (0-infinity, from 24) (1 × 10 mg non-coated fed): 7019 ng·h/mL
AUC (0-infinity, from 144) (1 × 10 mg non-coated fed): 16062 ng·h/mL
AUC(0-24) (1 × 10 mg non-coated fed): 4855 ng·h/mL
AUC(0-144) (1 × 10 mg non-coated fed): 13717 ng·h/mL
AUMC (0-24) (1 × 10 mg non-coated fed): 60611 hours^2*ng/ml
AUMC (0-infinity) (1 × 10 mg non-coated fed): 1254665 hours^2*ng/ml
Cl/F (0-24) (1 × 10 mg non-coated fed): 1.552 L/h
Cl/F (from 144) (1 × 10 mg non-coated fed): 0.702 L/h
Cmax (1 × 10 mg non-coated fed): 343.3 ng/mL
Ke (from 24) (1 × 10 mg non-coated fed): 0.0670 h⁻¹
Ke (from 144) (1 × 10 mg non-coated fed): 0.0180 h⁻¹
MTT (0-24) (1 × 10 mg non-coated fed): 12.5 h
MTT (from 144) (1 × 10 mg non-coated fed): 70.3 h
T1/2 (from 24) (1 × 10 mg non-coated fed): 11.2 h
T1/2 (from 144) (1 × 10 mg non-coated fed): 47.7 h
Tmax (1 × 10 mg non-coated fed): 10.17 h
AUC (0-infinity, from 24) (1 × 20 mg coated fasting): 9794 ng·h/mL
AUC (0-infinity, from 144) (1 × 20 mg coated fasting): 15637 ng·h/mL
AUC(0-24) (1 × 20 mg coated fasting): 5362 ng·h/mL
AUC(0-144) (1 × 20 mg coated fasting): 14579 ng·h/mL
AUMC (0-24) (1 × 20 mg coated fasting): 68472 hours^2*ng/ml
AUMC (0-infinity) (1 × 20 mg coated fasting): 849853 hours^2*ng/ml
Cl/F (0-24) (1 × 20 mg coated fasting): 3.188 L/h
Cl/F (from 144) (1 × 20 mg coated fasting): 2.387 L/h
Cmax (1 × 20 mg coated fasting): 366.3 ng/mL
Ke (from 24) (1 × 20 mg coated fasting): 0.0385 h⁻¹
Ke (from 144) (1 × 20 mg coated fasting): 0.0203 h⁻¹
MTT (0-24) (1 × 20 mg coated fasting): 12.8 h
MTT (from 144) (1 × 20 mg coated fasting): 53.8 h
T1/2 (from 24) (1 × 20 mg coated fasting): 19.9 h
T1/2 (from 144) (1 × 20 mg coated fasting): 35.6 h
Tmax (1 × 20 mg coated fasting): 8.17 h
AUC (0-infinity, from 24) (1 × 20 mg coated fed): 20054 ng·h/mL
AUC (0-infinity, from 144) (1 × 20 mg coated fed): 16687 ng·h/mL
AUC(0-24) (1 × 20 mg coated fed): 4655 ng·h/mL
AUC(0-144) (1 × 20 mg coated fed): 14968 ng·h/mL
AUMC (0-24) (1 × 20 mg coated fed): 66330 hours^2*ng/ml
AUMC (0-infinity) (1 × 20 mg coated fed): 1070977 hours^2*ng/ml
Cl/F (0-24) (1 × 20 mg coated fed): 1.400 L/h
Cl/F (from 144) (1 × 20 mg coated fed): 1.583 L/h
Cmax (1 × 20 mg coated fed): 306.6 ng/mL
Ke (from 24) (1 × 20 mg coated fed): 0.0230 h⁻¹
Ke (from 144) (1 × 20 mg coated fed): 0.0179 h⁻¹
MTT (0-24) (1 × 20 mg coated fed): 14.9 h
MTT (from 144) (1 × 20 mg coated fed): 62.9 h
T1/2 (from 24) (1 × 20 mg coated fed): 53.2 h
T1/2 (from 144) (1 × 20 mg coated fed): 39.6 h
Tmax (1 × 20 mg coated fed): 11.67 h
